Literature values in US20030083520A1, “Process for preparing bicyclic amino acid” (Pfizer Inc., priority 2001, published 2003).

Test system: α2δ subunit derived from porcine brain tissue
Details: [3H]gabapentin radioligand

SMILES	α2δ binding affinity [µM]
NCC1(CC(=O)O)C[C@H]2CC[C@@H]2C1 (racemic) [(+/−)-(1α,5β)(3-Aminomethyl-bicyclo[3.2.0]hept-3-yl)-acetic acid]	2.86
NC[C@]1(CC(=O)O)C[C@H]2CC[C@H]2C1 [(1α,3α,5α)(3-aminomethyl-bicyclo[3.2.0]hept-3-yl)-acetic acid]	0.038
NC[C@@]1(CC(=O)O)C[C@H]2CC[C@H]2C1 [(1α,3β,5α)(3-Aminomethyl-bicyclo[3.2.0]hept-3-yl)-acetic acid]	0.332
